Results taken from patent US12083101B2, “Biaryl derivatives as YAP/TAZ-TEAD protein-protein interaction inhibitors” (Novartis AG, priority 2020, dated 2024).
Read-outs that look alike come from different tables or passages of the source.

Legend:
MKN-45/Ubc-luc cells [1] = test: Reporter gene specificity control (Ubc-luciferase), MKN-45
[2] = target: Avi-humanTEAD4 217-434 / Cy5 labeled humanYAP 60-100 (Homo sapiens (Human), UniProt Q15561); test: TR-FRET YAP-TEAD4 in-vitro biochemical assay; assay type: binding; conditions: 1 nM Avi-humanTEAD4 217-434, 20 nM Cy5-humanYAP 60-100, 1 h room temperature
[3] = tested on: NCI-H2052 Tet-On shYAP_2371 pLenti6 MCAT_Luc cells; test: Proliferation assay (resazurin), NCI-H2052; assay type: cell-based; conditions: 72 hours incubation
Method: (§1) This cell line was also transduced with a Tet-pLKO-puro-based construct mediating tetracycline-inducible expression of a short-hairpin directed against the 3′UTR of the YAP1 mRNA (5′-[…]-3′).
(§2) Stock solutions of compounds were prepared at a concentration of 10 mM in DMSO and stored at 4° C. Where necessary to afford a full dose-response curve, the stock solutions were pre-diluted in DMSO to 1'000-fold the desired reduced start concentration. On the day after cell seeding, eleven 2-fold serial dilutions of each compound were dispensed directly into the cell assay plates using a HP 300D non-contact Digital Dispenser (TECAN, Mannedorf, Switzerland). The final concentration of DMSO was normalized to 0.1% in all wells.
(§3) The functional effect of compounds on cell proliferation was assessed using NCI-H2052 Tet-On shYAP_2371 pLenti6 MCAT_Luc and MKN-45/Ubc-luc cells by quantifying the reducing capacity of live cells using the redox indicator dye resazurin. […] For data analysis, the assay background value determined in wells containing medium, but no cells, was subtracted from all data points. […] The effect of a particular test compound concentration on cell proliferation/viability was expressed as percentage of day 0-corrected fluorescence reading obtained for cells treated with vehicle only (DMSO, final concentration 0.1%), which was set as 100%, whereas the fluorescence reading for wells containing medium only, but no cells, was set as −100%. Compound concentrations leading to half-maximal growth inhibition (GI50) were determined using standard four parameter curve fitting.

MKN-45/Ubc-luc cells [4] = test: Proliferation assay (resazurin), MKN-45; assay type: cell-based; conditions: 72 hours incubation
Method: As a specificity control, MKN-45 cells were stably transduced with a Ubc-Luc reporter construct, in which constitutive expression of firefly luciferase is driven by the promoter of the ubiquitin C housekeeping gene.
as §2, §3

[5] = tested on: NCI-H2052 Tet-On shYAP_2371 pLenti6 MCAT_Luc cells (YAP-dependent transcription); test: YAP reporter gene activity assay (MCAT-luciferase), NCI-H2052; assay type: cell-based; conditions: 24 hours incubation, BrightGlo luminescence
Method: as §1, §2
The ability of compounds to inhibit YAP-dependent transcription was assessed in NCI-H2052 Tet-On shYAP_2371 pLenti6 MCAT_Luc cells, while specificity (lack of unspecific inhibition of luciferase expression of activity) was assessed in MKN-45/Ubc-luc cells. […] Following incubation for 24 hours at 37° C., compound-mediated modulation of reporter-gene activity was quantified 5 min after addition of 20 μl BrightGlo (Promega, Cat #E2620), by measuring luminescence intensity on a multi-mode plate-reader (TECAN, Männedorf, Switzerland, Integration time 100 ms). For data analysis, the assay background value determined in wells containing medium, but no cells, was subtracted from all data points. Dose-dependent compound effects were expressed as % of vehicle-treated control (luminescence signal produced by cells receiving DMSO only) and IC50s calculated using a four-parametric fit model.

[6] = Homo sapiens, MKN-45, 24 h, read-out: Reporter gene assay MKN-45 IC50 [μM], MKN-45/Ubc-luc cells (YAP deleted, specificity control), 24 hours incubation
[7] = read-out: Reporter gene assay MKN-45 IC50, MKN-45/Ubc-luc cells (YAP deleted, specificity control), 24 hours incubation

Sequence of Avi-humanTEAD4 217-434 / Cy5 labeled humanYAP 60-100 (Q15561 217-434): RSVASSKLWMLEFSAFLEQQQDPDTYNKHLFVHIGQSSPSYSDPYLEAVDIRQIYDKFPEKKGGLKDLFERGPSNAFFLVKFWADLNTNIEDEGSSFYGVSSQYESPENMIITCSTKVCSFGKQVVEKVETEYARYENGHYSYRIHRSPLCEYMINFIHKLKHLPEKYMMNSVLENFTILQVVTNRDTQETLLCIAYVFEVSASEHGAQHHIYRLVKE

COCCOc1ccc(C(N)=O)c(-c2c(Cl)ccc3c2[C@H](O)[C@@](CN)(c2ccccc2)O3)c1F (atropisomer, axis not shown) [Example 88, 2-((2S,3S,4S)-2-(aminomethyl)-5-chloro-3-hydroxy-2-phenyl-2,3-dihydrobenzofuran-4-yl)-3-fluoro-4-(2-methoxyethoxy)benzamide]
IC50 (MKN-45/Ubc-luc cells [1]; [6]): > 10 µM
IC50 [2]: 7 nM
GI50 ([3]; Homo sapiens, NCI-H2052, 72 h): 242 nM
GI50 (MKN-45/Ubc-luc cells [4]; Homo sapiens): > 10000 nM
IC50 ([5]; Homo sapiens, NCI-H2052, 24 h): 91 nM

NC[C@@]1(c2ccccc2)Cc2c(ccc(Cl)c2-c2c(C(N)=O)ccc(OCCO)c2F)O1 (atropisomer, axis not shown) [Example 10, 2-((2S,4S)-2-(aminomethyl)-5-chloro-2-phenyl-2,3-dihydrobenzofuran-4-yl)-3-fluoro-4-(2-hydroxyethoxy)benzamide]
IC50 (MKN-45/Ubc-luc cells [1]; [6]): > 10 µM
IC50 [2]: 3 nM
GI50 ([3]; Homo sapiens, NCI-H2052, 72 h): 99 nM
GI50 (MKN-45/Ubc-luc cells [4]; Homo sapiens): > 10000 nM
IC50 ([5]; Homo sapiens, NCI-H2052, 24 h): 64 nM

COc1ccc(C(N)=O)c(-c2c(Cl)ccc3c2C[C@@](CN[C@H]2CC[C@H](C(=O)O)CC2)(c2ccccc2)O3)c1F (relative stereo) [Example 28a, (Trans)-4-((((2S,4S)-4-(6-carbamoyl-2-fluoro-3-methoxyphenyl)-5-chloro-2-phenyl-2,3-dihydrobenzofuran-2-yl)methyl)amino)cyclohexanecarboxylic acid]
IC50 (MKN-45/Ubc-luc cells [1]; [7]): > 10 µM
IC50 [2]: 3 nM
GI50 [3]: 224 nM
GI50 (MKN-45/Ubc-luc cells [4]): > 10000 nM
IC50 [5]: 86 nM

C[C@]1(O)CC[C@@H](NC[C@@]2(c3ccccc3)Cc3c(cc(F)c(Cl)c3-c3c(C(N)=O)ccc(-n4ccnc4)c3F)O2)CC1 (atropisomer, axis not shown) [Example 69b, 2-((2S,4S)-5-chloro-6-fluoro-2-((((cis)-4-hydroxy-4-methylcyclohexyl)amino)methyl)-2-phenyl-2,3-dihydrobenzofuran-4-yl)-3-fluoro-4-(1H-imidazol-1-yl)benzamide]
IC50 (MKN-45/Ubc-luc cells [1]; [6]): 7.8 µM
IC50 [2]: 4 nM
GI50 ([3]; Homo sapiens, NCI-H2052, 72 h): 171 nM
GI50 (MKN-45/Ubc-luc cells [4]; Homo sapiens): 6700 nM
IC50 ([5]; Homo sapiens, NCI-H2052, 24 h): 114 nM

COc1ccc(C(N)=O)c(-c2c(Cl)c(F)cc3c2C[C@](c2ccccc2)([C@@H]2CCCN2)O3)c1F [Example 174, 2-((2S,4S)-5-Chloro-6-fluoro-2-phenyl-2-((S)-pyrrolidin-2-yl)-2,3-dihydrobenzofuran-4-yl)-3-fluoro-4-methoxybenzamide]
IC50 (MKN-45/Ubc-luc cells [1]; [7]): 12 µM
IC50 [2]: 3 nM
GI50 [3]: 21 nM
GI50 (MKN-45/Ubc-luc cells [4]): 11000 nM
IC50 [5]: 37 nM

C[C@H]1c2c(cc(F)c(Cl)c2-c2c(C(N)=O)ccc(OCCO)c2F)O[C@]1(CNC1CCC1)c1ccccc1 (atropisomer, axis not shown) [Example 118, 2-((2S,3S,4S)-5-chloro-2-((cyclobutylamino)methyl)-6-fluoro-3-methyl-2-phenyl-2,3-dihydrobenzofuran-4-yl)-3-fluoro-4-(2-hydroxyethoxy)benzamide]
IC50 (MKN-45/Ubc-luc cells [1]; [6]): > 5.5 µM
IC50 [2]: 1 nM
GI50 ([3]; Homo sapiens, NCI-H2052, 72 h): 15 nM
GI50 (MKN-45/Ubc-luc cells [4]; Homo sapiens): > 5500 nM
IC50 ([5]; Homo sapiens, NCI-H2052, 24 h): 10 nM

COc1ccc(C(N)=O)c(-c2c(Cl)c(F)cc3c2[C@H](O)[C@@](CN)(c2ccccc2)O3)c1F (atropisomer, axis not shown) [Example 97, 2-((2S,3S,4S)-2-(Aminomethyl)-5-chloro-6-fluoro-3-hydroxy-2-phenyl-2,3-dihydrobenzofuran-4-yl)-3-fluoro-4-methoxybenzamide]
IC50 (MKN-45/Ubc-luc cells [1]; [6]): > 10 µM
IC50 [2]: 4 nM
GI50 ([3]; Homo sapiens, NCI-H2052, 72 h): 117 nM
GI50 (MKN-45/Ubc-luc cells [4]; Homo sapiens): > 10000 nM
IC50 ([5]; Homo sapiens, NCI-H2052, 24 h): 65 nM

CNC(=O)c1ccc(OC)c(F)c1-c1c(Cl)ccc2c1C[C@@](CN)(c1ccccc1)O2 (atropisomer, axis not shown) [Example 22, 2-((2S,4S)-2-(Aminomethyl)-5-chloro-2-phenyl-2,3-dihydrobenzofuran-4-yl)-3-fluoro-4-methoxy-N-methylbenzamide]
IC50 (MKN-45/Ubc-luc cells [1]; [6]): > 20 µM
IC50 [2]: 9 nM
GI50 ([3]; Homo sapiens, NCI-H2052, 72 h): 256 nM
GI50 (MKN-45/Ubc-luc cells [4]; Homo sapiens): > 10000 nM
IC50 ([5]; Homo sapiens, NCI-H2052, 24 h): 157 nM

NC[C@@]1(c2cccc3c2OC(F)(F)O3)Cc2c(ccc(Cl)c2-c2c(F)cccc2C(N)=O)O1 (atropisomer, axis not shown) [Example 30, 2-((2S,4S)-2-(aminomethyl)-5-chloro-2-(2,2-difluorobenzo[d][1,3]dioxol-4-yl)-2,3-dihydrobenzofuran-4-yl)-3-fluorobenzamide]
IC50 (MKN-45/Ubc-luc cells [1]; [6]): > 10 µM
IC50 [2]: 143 nM
GI50 ([3]; Homo sapiens, NCI-H2052, 72 h): 6840 nM
GI50 (MKN-45/Ubc-luc cells [4]; Homo sapiens): > 10000 nM
IC50 ([5]; Homo sapiens, NCI-H2052, 24 h): 4770 nM

COc1ccc(C(N)=O)c(-c2c(Cl)c(F)cc3c2[C@H](O)[C@](c2ccccc2)(C2CCCN2)O3)c1F (stereo partly drawn) [Example 164, 2-((2S,3S,4S)-5-chloro-6-fluoro-3-hydroxy-2-phenyl-2-(pyrrolidin-2-yl)-2,3-dihydrobenzofuran-4-yl)-3-fluoro-4-methoxybenzamide]
IC50 (MKN-45/Ubc-luc cells [1]; [6]): > 10 µM
IC50 [2]: 4 nM
GI50 ([3]; Homo sapiens, NCI-H2052, 72 h): 107 nM
GI50 (MKN-45/Ubc-luc cells [4]; Homo sapiens): > 10000 nM
IC50 ([5]; Homo sapiens, NCI-H2052, 24 h): 107 nM

CO[C@H]1c2c(cc(F)c(Cl)c2-c2c(C(N)=O)ccc(OCCO)c2F)O[C@@]1(c1ccccc1)C1CCCN1 (stereo partly drawn) [Example 166, 2-((2S,3S,4S)-5-chloro-6-fluoro-3-methoxy-2-phenyl-2-(pyrrolidin-2-yl)-2,3-dihydrobenzofuran-4-yl)-3-fluoro-4-(2-hydroxyethoxy)benzamide]
IC50 (MKN-45/Ubc-luc cells [1]; [6]): > 10 µM
IC50 [2]: 8 nM
GI50 ([3]; Homo sapiens, NCI-H2052, 72 h): 256 nM
GI50 (MKN-45/Ubc-luc cells [4]; Homo sapiens): > 10000 nM
IC50 ([5]; Homo sapiens, NCI-H2052, 24 h): 136 nM

CNC[C@]1(c2ccccc2)Oc2cc(F)c(Cl)c(-c3c(C(=O)NC)ccc(OCCO)c3F)c2[C@@H]1C (atropisomer, axis not shown) [Example 113, 2-((2S,3S,4S)-5-Chloro-6-fluoro-3-methyl-2-((methylamino)methyl)-2-phenyl-2,3-dihydrobenzofuran-4-yl)-3-fluoro-4-(2-hydroxyethoxy)-N-methylbenzamide]
IC50 (MKN-45/Ubc-luc cells [1]; [6]): > 10 µM
IC50 [2]: 2 nM
GI50 ([3]; Homo sapiens, NCI-H2052, 72 h): 29 nM
GI50 (MKN-45/Ubc-luc cells [4]; Homo sapiens): > 10000 nM
IC50 ([5]; Homo sapiens, NCI-H2052, 24 h): 21 nM

COc1ccc(C(N)=O)c(-c2c(Cl)ccc3c2C[C@@](CN)(c2ccccc2F)O3)c1F (atropisomer, axis not shown) [Example 31, 2-((2S,4S)-2-(Aminomethyl)-5-chloro-2-(2-fluorophenyl)-2,3-dihydrobenzofuran-4-yl)-3-fluoro-4-methoxybenzamide]
IC50 (MKN-45/Ubc-luc cells [1]; [6]): > 10 µM
IC50 [2]: 3 nM
GI50 ([3]; Homo sapiens, NCI-H2052, 72 h): 346 nM
GI50 (MKN-45/Ubc-luc cells [4]; Homo sapiens): > 10000 nM
IC50 ([5]; Homo sapiens, NCI-H2052, 24 h): 343 nM

COc1ncc(C(N)=O)c(-c2c(Cl)ccc3c2C[C@@](CN)(c2ccccc2)O3)c1F (atropisomer, axis not shown) [Example 18, 4-((2S,4S)-2-(Aminomethyl)-5-chloro-2-phenyl-2,3-dihydrobenzofuran-4-yl)-5-fluoro-6-methoxynicotinamide]
IC50 (MKN-45/Ubc-luc cells [1]; [6]): 19.5 µM
IC50 [2]: 4 nM
GI50 ([3]; Homo sapiens, NCI-H2052, 72 h): 553 nM
GI50 (MKN-45/Ubc-luc cells [4]; Homo sapiens): > 12500 nM
IC50 ([5]; Homo sapiens, NCI-H2052, 24 h): 379 nM

NC(=O)c1ccc(OC(F)F)c(F)c1-c1c(Cl)ccc2c1[C@H](O)[C@@](CN[C@H]1CC[C@@H](O)CC1)(c1ccccc1)O2 (relative stereo) [Example 94b, 2-((2S,3S,4S)-5-chloro-3-hydroxy-2-((((cis)-4-hydroxycyclohexyl)amino)methyl)-2-phenyl-2,3-dihydrobenzofuran-4-yl)-4-(difluoromethoxy)-3-fluorobenzamide]
IC50 (MKN-45/Ubc-luc cells [1]; [7]): > 10 µM
IC50 [2]: 3 nM
GI50 [3]: 101 nM
GI50 (MKN-45/Ubc-luc cells [4]): > 10000 nM
IC50 [5]: 83 nM
